Three compounds from ChEMBL document CHEMBL5131448, “Tumor-microenvironmental-response Bi-functional molecules for efficient imaging and anti-tumor activity therapy” (Eur J Med Chem, 2022) can be followed below.

In general, IC50 refers to the concentration needed to halve the response being measured. A higher IC50 goes with weaker potency.

Active and inactive are the calls of the source. The calls are words filed in the database; no cut-off is given here.

The test system of one data set is MDA-MB-231. The experiment in a line: Antiproliferative activity against human MDA-MB-231 cells after 72 hrs by MTT assay. It counts as functional, cell-based. The conditions noted are these: MDA-MB-231, 72 h. Background: Formazan colour is commonly taken as a measure of viable cells.
For a further data set, the system named is A549. The experiment in a line: Antiproliferative activity against human A549 cells after 72 hrs by MTT assay. The format is functional, cell-based. The conditions noted are these: A549, 72 h.
Another data set relates to HeLa. Kind of data set: Antiproliferative activity against human HeLa cells after 72 hrs by MTT assay. It counts as functional, cell-based.
Data set [1] relates to EA.hy 926. The experiment in a line: Antiproliferative activity against human EA.hy 926 cells after 72 hrs by MTT assay. It counts as functional, cell-based. The conditions noted are these: EA.hy 926, 72 h.
In data set [2] the test system is EA.hy 926. The experiment in a line: Effect on cell apoptosis in human EA.hy 926 cells assessed as promotion of apoptosis at 0.1 to 40 uM measured after 72 hrs by Annexin V-FITC/propidium iodide staining based flow cytometry. It counts as functional. The conditions noted are these: dose 0.1-40 µM.
Data set [3] has as its system EA.hy 926. The experiment in a line: Induction of cell cycle arrest in human EA.hy 926 cells assessed as accumulation of cells at G1-pahse at 0.1 to 40 uM measured after 72 hrs by propidium iodide staining method. It counts as functional, cell-based. To be noted: dose 0.1-40 µM.
A further data set concerns HEK293. Kind of data set: Cytotoxicity against human HEK293 cells measured after 72 hrs by MTT assay. The format is toxicity, cell-based. To be noted: hek293, 72 h.

Regarding `CCN(CC)c1ccc2c(-c3ccccc3C(=O)NCCCCNC(=O)CSSCC(=O)n3nc(N)c4c(-c5ccc(NC(=O)Nc6cc(C)ccc6F)cc5)cccc43)c3ccc(=[N+](CC)CC)cc-3oc2c1`, the IC50 in the data set on MDA-MB-231 was 85 µM; in the data set on A549 it was 22.1 µM; in the data set on HeLa, 128 µM; in the data set with EA.hy 926 [1] it was 0.03 µM. For the same compound, the result in the data set on EA.hy 926 [2] and in the data set with EA.hy 926 [3] was Active. In addition, the Activity entry with HEK293 is reported as “Non-Toxic”.

`COc1ccc(-c2ccc(Cn3cc(-c4cccc(N)c4)nn3)cc2)cn1`: the result in the data set on EA.hy 926 [2] and with EA.hy 926 [3] was Active. The Activity entry in the data set with HEK293 was “Non-Toxic”.

On to `CCN(CC)c1ccc2c(-c3ccccc3C(=O)NCCCCNC(=O)CSSCC(=O)Nc3cccc(-c4cn(Cc5ccc(-c6ccc(OC)nc6)cc5)nn4)c3)c3ccc(=[N+](CC)CC)cc-3oc2c1`, for which the IC50 with MDA-MB-231 was determined as 35.9 µM; in the data set on HeLa it was 15.8 µM; in the data set on EA.hy 926 [1], 2.96 µM. Also, the result in the data set with EA.hy 926 [2] and in the data set with EA.hy 926 [3] was Active. Besides, the Activity entry with HEK293 is “Non-Toxic”.
